From article PMC12112332, “Characterization of Novel and Known Activators of Cannabinoid Receptor Subtype 2 Reveals Mixed Pharmacology That Differentiates Mycophenolate Mofetil and GW-842,166X from MDA7” (International Journal of Molecular Sciences, 2025)
Read-outs that look alike come from different tables or passages of the source.

Experiments:
rCB2 = biological target: T1, rCB2 (Rattus norvegicus, UniProt Q9QZN9); assay: Thallium flux assay in HEK/GIRK cells expressing rCB2; type: cell-based; details: for rCB2 GIRK (−) 2-AG % Max ± SEM / rCB2 GIRK (+) 2-AG % Max ± SEM: % of maximal 2-AG response
T1 construct: expressed in transfected cells; host or cells: HEK293 cells stably co-expressing GIRK1/2 channels
T1 sequence (Q9QZN9 1-360): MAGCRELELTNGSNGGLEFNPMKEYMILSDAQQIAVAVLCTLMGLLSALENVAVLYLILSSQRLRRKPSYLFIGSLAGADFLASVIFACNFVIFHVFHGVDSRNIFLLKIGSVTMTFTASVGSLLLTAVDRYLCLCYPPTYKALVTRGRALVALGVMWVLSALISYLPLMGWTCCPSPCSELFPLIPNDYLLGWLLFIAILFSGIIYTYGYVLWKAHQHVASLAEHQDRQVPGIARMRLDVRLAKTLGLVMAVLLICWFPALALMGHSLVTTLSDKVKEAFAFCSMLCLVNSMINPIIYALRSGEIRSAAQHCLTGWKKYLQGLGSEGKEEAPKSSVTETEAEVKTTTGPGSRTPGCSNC
Protocol: To identify new compounds capable of potentiating CB2 responses to the endogenous agonist 2-AG, we used a thallium flux assay measuring the ability of ligands to enhance 2-AG-induced responses in cells expressing rCB2 and GIRK1/2 channels to screen a collection of FDA-approved drugs. Compounds were added to cells loaded with thallium-sensitive dye and allowed to incubate for 2.3 min, whereupon a submaximal concentration (EC20) of 2-AG was added to the cells and the signal was monitored for an additional 2.7 min. The ~1000 compound collection was initially screened at a single point using a 10 µM concentration of the compound. Test compounds that potentiated the cellular response to 2-AG by a minimum of 3 standard deviations above the average EC20 agonist response were selected as potential PAM hits. A total of 63 putative PAMs were identified; of these, 13 were confirmed as active with concentration-dependent activity at the rCB2 receptor.
The cell lines used in this manuscript were generated in-house. Their preparation is described in detail in Qi et al.. Cells were used for 10 passages for experiments and day-to-day signals in both the CB2 and CB1 lines were stable across this passage number. Human Embryonic Kidney (HEK) 293 cells stably expressing rCB2 and the G protein Gqi9 were maintained in Dulbecco’s modified Eagle media (DMEM) containing 10% FBS, 1× antibiotic/antimycotic, 20 mM HEPES, 1 mM sodium pyruvate, 2 mM L-glutamine, 1× non-essential amino acids, 700 µg/mL G418 sulfate, and 0.6 µg/mL puromycin. HEK cells stably expressing rCB2 or rCB1 and the G protein inwardly rectifying potassium channel (GIRK) were maintained in DMEM/F12 containing 10% FBS, 1× antibiotic/antimycotic, 20 mM HEPES, 1 mM sodium pyruvate, 2 mM L-glutamine, 1× non-essential amino acids, 700 µg/mL G418 sulfate, and 0.6 µg/mL puromycin. Cells were monitored by periodic PCR detection using the LookOut Mycoplasma PCR Detection Kit (Sigma-Aldrich, St Louis, MO, USA) to eliminate potential mycoplasma infection. Reagents were obtained from Invitrogen (Waltham, MA, USA) unless otherwise noted.
Thallium flux assays were performed as previously described in Niswender et al., 2008 [31]. HEK/GIRK cells stably expressing rCB1 or rCB2 (15,000 cells/20 µL/well) were seeded in 384-well, poly-D-lysine coated assay plates (Corning BioCoat®) (Corning Inc., Corning, NY, USA) and incubated overnight at 37 °C in the presence of 5% CO2. The next day, the medium was removed and replaced with 20 μL of 1.2 µM thallium-sensitive dye Thallos-AM (ION biosciences, San Marcos, TX, USA), prepared as a DMSO stock solution mixed in a 1:1 ratio with 10% (w/v) pluronic acid F-127, and diluted in assay buffer (Hank’s balanced salt solution, 20 mM HEPES, pH 7.4). Following 1 h at room temperature, the dye solution was removed and replaced with 20 µL assay buffer. For screening of the FDA-Approved Drug Collection, 10 mM DMSO stocks of library compounds were transferred to daughter plates using an Echo acoustic plate reformatter (Labcyte, Sunnyvale, CA, USA) and diluted in assay buffer to a 2× final concentration. For concentration–response curve experiments, compounds were serially diluted 1:3 into 10-point concentration–response curves in DMSO, transferred to daughter plates using the Echo or Bravo Automated Liquid Handling Platform (Agilent Technologies, Santa Clara, CA, USA), and diluted in assay buffer to a 2× final concentration. Thallium flux was measured using the Hamamatsu FDSS/μCELL Kinetic Plate Imager (Bridgewater, NJ, USA). After the establishment of a fluorescence baseline (excitation, 480 ± 20 nm; emission, 540 ± 30 nm), 20 µL (2×) of test compound was added to the cells at 1 s and the response was measured. […]

rat CB2 = biological target: T2, rat CB2 (Rattus norvegicus, UniProt Q9QZN9); assay: β-arrestin recruitment assay (PathHunter, Eurofins) in rat CB2 cells; type: cell-based; set-up: expressed in transfected cells; details: for rCB2 β-Arrestin (−) CP55,940 % Max / rCB2 β-Arrestin (+) CP55,940 % Max: % of maximal CP55,940 response
T2 sequence (Q9QZN9 1-360): T1 sequence (Q9QZN9 1-360)
Protocol: Assays were performed by Eurofins Discovery (Freemont, CA, USA). PathHunter cell lines were expanded from freezer stocks according to standard procedures. Rat CB2 cells were seeded in a total volume of 20 μL into white-walled, 384-well microplates and incubated at 37 °C for the appropriate time prior to testing. For agonist determination, cells were incubated with the sample to induce a response. Intermediate dilution of sample stocks was performed to generate a 5× sample in assay buffer. A total of 5 μL of 5× sample was added to the cells and incubated at 37 °C or room temperature for at least 120 min. The final assay vehicle concentration was 1%. For allosteric modulator determination, cells were pre-incubated with the sample followed by agonist challenge at the EC20. Intermediate dilution of sample stocks was performed to generate a 5× sample in assay buffer. A total of 5 μL of 5× sample was added to cells and incubated at 37 °C or room temperature for 15 min. Vehicle concentration was 1%. Then, 5 μL of 6× EC20 agonist in assay buffer was added to the cells and incubated at 37 °C or room temperature for at least 120 min.
The assay signal was generated through a single addition of 15 μL (50% v/v) of PathHunter Detection reagent cocktail, followed by a one-hour incubation at room temperature. Microplates were read following signal generation with a PerkinElmer Envision^TM instrument for chemiluminescent signal detection.
Compound activity was analyzed using the CBIS data analysis suite (ChemInnovation). For agonist mode assays, percentage activity was calculated using the following formula: % Activity = 100% × (mean RLU of test sample − mean RLU of vehicle control)/(mean MAX control ligand − mean RLU of vehicle control).
For positive allosteric mode assays, percentage modulation was calculated using the following formula: % Modulation = 100% × ((mean RLU of test sample − mean RLU of EC20 control)/(mean RLU of MAX control ligand − mean RLU of EC20 control)).

[1] = rCB2 GIRK (−) 2-AG pEC50 ± SEM, thallium flux, absence of 2-AG
[2] = thallium flux, presence of EC20 2-AG
[3] = rCB2 β-Arrestin (+) CP55,940 pEC50, presence of EC20 CP55,940
[4] = rCB2 β-Arrestin (−) CP55,940 pEC50, absence of CP55,940

EC50 (rCB2; thallium flux rCB2, vehicle instead of AM630, read-out: pEC50 of mycophenolate mofetil CRC, vehicle (converted)) [nM] | EC50 (rCB2; thallium flux, absence of 2-AG, read-out: rCB2 GIRK EC50 in absence of 2-AG) [nM] | EC50 (rCB2; thallium flux, presence of EC20 2-AG, read-out: rCB2 GIRK EC50 in presence of 2-AG) [nM] | EC50 (rat CB2; absence of CP55,940, read-out: rCB2 β-Arrestin (−) CP55,940 pEC50 (converted)) [nM] | EC50 (rat CB2; presence of EC20 CP55,940, read-out: rCB2 β-Arrestin (+) CP55,940 pEC50 (converted)) [nM] | Compound | EC50 (rCB2; [1]) [nM] | EC50 (rCB2; rCB2 GIRK EC50 in absence of 2-AG, thallium flux, absence of 2-AG) [nM] | EC50 (rCB2; rCB2 GIRK EC50 in presence of 2-AG, thallium flux, presence of EC20 2-AG) [nM] | rCB2 GIRK (−) 2-AG % Max ± SEM (rCB2; thallium flux, absence of 2-AG) [%] | rCB2 GIRK (+) 2-AG % Max ± SEM (rCB2; [2]) [%] | rCB2 β-Arrestin (−) CP55,940 % Max (rat CB2; absence of CP55,940) [%] | rCB2 β-Arrestin (+) CP55,940 % Max (rat CB2; presence of EC20 CP55,940) [%] | EC50 (rat CB2; [3]) [nM] | EC50 (rat CB2; [4]) [nM] | EC50 (rCB2; rCB2 GIRK (+) 2-AG pEC50 ± SEM, thallium flux, presence of EC20 2-AG) [nM] | rCB2 GIRK (−) 2-AG pEC50 ± SEM (rCB2; thallium flux, absence of 2-AG) | rCB2 GIRK (+) 2-AG pEC50 ± SEM (rCB2; [2])
 |  |  |  |  | O=C(NCC1CCOCC1)c1cnc(Nc2ccc(Cl)cc2Cl)nc1C(F)(F)F [GW-842,166X, 2-(2,4-dichloroanilino)-N-(oxan-4-ylmethyl)-4-(trifluoromethyl)pyrimidine-5-carboxamide] | 55 | 56 | 74 | 89 ± 5 | 82 ± 4 | 97 | 120 | 631 | 162 |  |  | 
 |  |  |  |  | CC1(Cc2ccccc2)COc2cc(C(=O)N3CCCCC3)ccc21 (centres unmarked) [MDA7, 1-[(3-benzyl-3-methyl-2,3-dihydro-1-benzofuran-6-yl)carbonyl]piperidine] | > 10000 |  |  | −64 ± 13 | −65 ± 15 | 38 | 40 | > 10000 | 47.9 | > 10000 | < 5.0 | < 5.0
339 | 154 | 228 | 1150 | 1350 | COc1c(C)c2c(c(O)c1C/C=C(\C)CCC(=O)OCCN1CCOCC1)C(=O)OC2 [Mycophenolate mofetil] |  |  |  | 71 ± 5 | 74 ± 2 | 114 | 113 |  |  |  |  | 
 |  |  |  |  | COc1c(C)c2c(c(O)c1C/C=C(\C)CCC(=O)O)C(=O)OC2 [Mycophenolic acid] |  |  |  |  |  |  |  |  |  |  |  | Inactive
